Columns and labels:
[1] = test system: MDA231; test: MDA231 cell growth, MTT; type: cell-based, human; conditions: 50 μg/ml, day 6 culture
Method: (§1) For cell proliferation assays, cells were grown in 10% FCS culture medium containing various amounts of IFNs and/or sodium stibogluconate in 96 well plates and cultured at 37° C. for 3 or 6 days as indicated. The numbers of viable cells in proliferation assays were determined by MTT assays as described in Phatak et al., J. Immunol. 167, 3391 (2001).

[2] = test system: Hey; test: HEY cell growth, MTT; type: cell-based, human; conditions: 100 μg/ml, day 6
Method: (§2) NIH3T3 (Yi, et al., Blood 85, 87 (1995)), WM9 (Forsberg, et al., Proc. Nat. Acad Sci. USA 90, 393 (1993)), DU145 (Mickey, et al., Cancer Res. 37, 4049 (1977)), LoVo (Drewinko, et al., Cancer Res. 36, 467 (1976)), HEY (Buick, et al., Cancer Res. 45, 3668 (1985)), U251 (Yoshida, et al., Cancer 50, 410 (1982)), A549 (Giard, et al., J. Natl. Cancer Inst. 51, 1417 (1973)) and SK-N-SH (Helson, et al., Cancer Res. 35, 2594 (1975)) cell lines have been described and were cultured in RPMI 1640 supplemented with 10% fetal calf serum (FCS). For measurement of sodium stibogluconate effects on cell growth in vitro, cells were cultured in the absence (−) or presence (+) of various amounts of sodium stibogluconate for 6 days with viable cells quantified by MTT assays (Mosmann, J. Immunol. Methods 65, 55 (1983)). Percentages of growth inhibition by sodium stibogluconate were calculated (.+−.x%).

[3] = test system: SK-N-SH; test: SK-N-SH cell growth, MTT; type: cell-based, human; conditions: 100 μg/ml, day 6
Method: as §2

[4] = test system: Baf3 cells; test: Baf3 cell proliferation assay; type: cell-based, murine
Method: (§3) The murine hematopoietic cell line Baf3 was maintained in RPMI 1640 medium supplemented with 10% fetal calf serum (FCS) and murine IL-3 (20 units/ml) as described previously in Damen et al., J. Biol. Chem. 270, 23402 (1995). Human myeloid cell line TF-1 was maintained in RPMI 1640 supplemented with 10% FCS and 40 ng/ml of recombinant human GM-CSF as described previously in Thomassen et al., Clin. Immunol. 95, 85 (2000). For cell proliferation assays, cells were washed in 10% FCS medium twice, resuspended in 10% FCS medium, incubated at 37° C. for 16 hours, and then cultured at 37° C. in 10% FCS medium containing various amounts of cytokines, sodium stibogluconate, or potassium antimonyl tartrate for 3-6 days as indicated. The cell numbers in proliferation assays were determined by an MTT assay or by microscopic cell counting as indicated.

[5] = target: T1, Flag-PRL-1 (Homo sapiens, UniProt Q93096); test: immunocomplex PTPase assay, NIH3T3 Flag-PRL-1 transfectants; type: cell-based, mouse; conditions: cells treated 5 min
T1 construct: expressed in transfected cells; host or cells: WM9 human melanoma cell line (pBabepuro, puromycin-selected)
T1 sequence (Q93096 whole entry): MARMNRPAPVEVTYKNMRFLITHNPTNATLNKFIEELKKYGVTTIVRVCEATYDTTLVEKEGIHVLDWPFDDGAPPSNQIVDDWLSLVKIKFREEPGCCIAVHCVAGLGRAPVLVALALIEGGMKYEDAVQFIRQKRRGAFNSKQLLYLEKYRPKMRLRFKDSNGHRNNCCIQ
Method: Immunocomplex PTPase assays were performed to assess the effects of sodium stibogluconate on intracellular PTPases. Cells were untreated or treated with sodium stibogluconate for 5 minutes, washed with fresh medium and then lysed in cold lysis buffer (50 mM Tris, pH 7.4; 150 mM NaCl; 1% NP40; 2 mM PMSF; 20 μg/ml of Aprotinin). The lysates were incubated with an anti-Flag antibody in immunoprecipitation assays. The immunocomplexes were collected with protein G sepharose beads (Pharmacia) and washed in cold lysis buffer for 4 times. […] C. for 18 hrs. 100 μL of malachite green solution (UBI) was added to each reaction prior to measurement of OD660 to quantify the amounts of free phosphate cleaved by the PTPases from the peptide substrate (Pathak et al., J. Immunol. 167, 3391 (2001)). The remaining 10% contents of individual samples were analyzed by SDS-PAGE/Western blotting to quantify the relative amounts of the phosphatase proteins. […]
The effects of sodium stibogluconate on intracellular PTPases were assessed using NIH3T3 or WM9 transfectants. […]

[6] = test system: DU145 cells; test: DU145 cell growth, MTT; type: cell-based, human
Method: as §1, §2

[7] = test system: TF-1 cells; test: TF-1 cell proliferation assay; type: cell-based, human; conditions: 50 μg/ml
Method: as §3

[8] = test system: Stat1 tyrosine phosphorylation; test: IFN-alpha-induced Stat1 tyrosine phosphorylation, Western blotting; type: cell-based, human
Method: For induction of Stat1 tyrosine phosphorylation by IFN-alpha in the absence or presence of sodium stibogluconate, cells grown in 10% FCS RPMI 1640 medium at 37° C. were stimulated with IFN-alpha (50 u/ml) for various time points and treated with or without sodium stibogluconate for 5 minutes prior to termination by lysing the cells in cold lysis buffer (1% NP-40; 50 mM Tris, pH 7.4; 100 mM NaCl; 1 mM EDTA, 10% glycerol, 10 mM sodium molybdic acid and 4 mM AEBSF).
Cell lysates were prepared by lysing cells in cold lysis buffer for 30 min and cleared by centrifuging at 14,000 rpm at 4° C. for 15 min. For SDS-PAGE, cell lysates were mixed with equal volume of 2×SDS-PAGE sample buffer, heated at 90° C. for 5 min and separated in 10% SDS-PAGE gels. Cellular proteins in SDS-PAGE gels were transferred to nitrocellulose membrane (Schleicher & Schuell, Keene, N.H.), blocked in 5% milk, probed with antibodies and detected by using an enhanced chemiluminescence kit (ECL, Amersham, Arlington Heights, Ill.).

## O.O.O.O.O.O.O.O.O.O=C([O-])[C@@H]1[O][Sb]2([O-])([O][Sb]34([OH])[O][C@H]([C@H](O)CO)[C@H]([O]3)[C@H](C(=O)[O-])[O]4)[O][C@H]([C@H](O)CO)[C@@H]1[O]2.[Na+].[Na+].[Na+] [sodium stibogluconate]
[1]
  MDA231 cells, single agent: killed all cells
[2]
  cell killing of Hey: near-complete cell killing
[3]
  cell killing of SK-N-SH: near-complete cell killing
[4]; 1,000 μg/ml
  effect on IL-3-induced Baf3 growth: suppressed IL-3-induced Baf3 growth
[4]; day 3 culture
  proliferation and viability in the absence of IL-3: failed to support cell proliferation or maintain cell viability
[5]
  PTPase activity of immunocomplexes from treated Flag-PRL-1 transfectants: little PTPase activities
[6]; 50 μg/ml and 100 μg/ml, day 6 culture
  DU145 cells, single agent: killed all cells
[6]; 100 μg/ml, day 6
  cell killing of DU145: near-complete cell killing
[7]; GM-CSF 5-40 ng/ml
  GM-CSF-induced proliferation of TF-1 cells: augmented
[7]; with GM-CSF and IFN-alpha
  growth inhibition activity of IFN-alpha on TF-1 cells in presence of drug: enhanced
[8]; DR cells, 10 μg/ml, 30 min post-stimulation
  IFN-alpha-induced Stat1 tyrosine phosphorylation: approximately two folds greater than control
[8]; DR cells, absence of IFN-alpha
  Stat1 tyrosine phosphorylation by drug itself: failed to induce Stat1 tyrosine phosphorylation
[8]; DU145, 5 hours post-stimulation
  IFN-alpha-induced Stat1 tyrosine phosphorylation: Enhanced Stat1 tyrosine phosphorylation
[8]; WM9, 5 hours post-stimulation
  IFN-alpha-induced Stat1 tyrosine phosphorylation: Enhanced Stat1 tyrosine phosphorylation
[8]; WM35
  IFN-alpha-induced Stat1 tyrosine phosphorylation: failed to enhance
[8]; WiT49-N1
  IFN-alpha-induced Stat1 tyrosine phosphorylation: failed to enhance
